# Assay results from patent publication US20090075951A1, “Methods and Reagents for the Treatment of Inflammatory Disorders” (CombinatoRx, Inc., priority 2003, published 2009).
# “And” between values parts separate entries of the source, which are not always exact repeats. Equal entries are not always repeated. Where two headings read alike, the source gives them in different places.
# How the values were obtained:
# cytokine secretion = assay: Suppression of cytokine secretion in vitro by individual tricyclic compounds
# Experimental: Individual tricyclic compounds were tested for their ability to suppress cytokine secretion in vitro.
# [1] = system: TNFα secretion from PMA/ionomycin stimulated white blood cells from human buffy coat; assay: TNFα secretion assay, PMA/ionomycin stimulation; settings: for inhibition at 0.01 µM: read-out: TNFα PI percent inhibition, 0.01 μM
# Experimental: (§1) Various concentrations of each test compound were added at the time of stimulation. […] After the plate was washed with 0.1% Tween 20/PBS, an HRP-luminescent substrate was added to each well and light intensity measured using a LJL Analyst plate luminometer.
# [2] = system: TNFα secretion from LPS stimulated white blood cells from human buffy coat; assay: TNFα secretion assay, LPS stimulation; settings: LPS; Prednisolone 0 μM; Norclozapine μM r5-r13: 0,0.21,0.41,0.83,1.7,3.3,6.6,13,27
# Experimental: as §1
# [3] = Protriptyline μM by row r6-r17: 67.00, 33.50, 16.75, 8.38, 4.19, 2.09, 1.05, 0.52, 0.26, 0.13, 0.07, 0.03
# [4] = read-out: TNFα PI percent inhibition, […]
# [5] = read-out: IL-2 PI percent inhibition
# [6] = Nortriptyline μM by row r6-r17: 67.00, 33.50, 16.75, 8.38, 4.19, 2.09, 1.05, 0.52, 0.26, 0.13, 0.07, 0.03
compound,measurement,setting,value
"CNCCCC1c2ccccc2C=Cc2ccccc21 [Protriptyline, protriptyline]","IL-1β LPS, percent inhibition relative to untreated controls",cytokine secretion; [3],0%
same,"IL-2 PI, percent inhibition relative to untreated controls",cytokine secretion; [3],0%
same,"TNFα LPS, percent inhibition relative to untreated controls",cytokine secretion; [3],2% and 0%
same,"TNFα PI, percent inhibition relative to untreated controls",cytokine secretion; [3],0%
OCCOCCN1CCN(C2=Nc3ccccc3Sc3ccccc32)CC1 [Quetiapine fumurate],inhibition at 0.01 µM,[1],7%
same,inhibition at 0.02 µM,"[1]; read-out: TNFα PI percent inhibition, 0.02 μM",0%
same,inhibition at 0.05 µM,"[1]; read-out: TNFα PI percent inhibition, 0.05 μM",0%
same,inhibition at 11 µM,[1]; [4],13%
same,inhibition at 0.01 µM,cytokine secretion; [5],0%
same,inhibition at 0.02 µM,cytokine secretion; [5],0%
same,inhibition at 0.05 µM,cytokine secretion; [5],0%
same,inhibition at 11 µM,cytokine secretion; [5],0%
"CN1CCN(C2=Nc3cc(F)ccc3Cc3ccccc32)CC1 [Fluperlapine, fluperlapine]",inhibition at 0.01 µM,[1],0%
same,inhibition at 0.04 µM,"[1]; read-out: TNFα PI percent inhibition, 0.04 μM",0%
same,inhibition at 0.4 µM,"[1]; read-out: TNFα PI percent inhibition, 0.40 μM",0%
same,inhibition at 32 µM,[1]; [4],25%
same,inhibition at 0.01 µM,cytokine secretion; [5],6%
same,inhibition at 0.04 µM,cytokine secretion; [5],8%
same,inhibition at 0.4 µM,cytokine secretion; [5],7%
same,inhibition at 32 µM,cytokine secretion; [5],1%
"CNCCC=C1c2ccccc2CCc2ccccc21 [Nortriptyline, nortriptyline]","IL-1β LPS, percent inhibition relative to untreated controls",cytokine secretion; [6],3% and 0%
same,"IL-2 PI, percent inhibition relative to untreated controls",cytokine secretion; [6],0%
same,"TNFα LPS, percent inhibition relative to untreated controls",cytokine secretion; [6],1% and 0%
same,"TNFα PI, percent inhibition relative to untreated controls",cytokine secretion; [6],2%
"C[C@]12C=CC(=O)C=C1CC[C@H]1[C@@H]3C[C@@H](O)[C@](O)(C(=O)CO)[C@@]3(C)C[C@H](O)[C@@]12F [Triamcinolone, triamcinolone]",inhibition at […],"[1]; read-out: inhibition of TNFα secretion, Triamcinolone 38 nM, Desipramine nM: 0, 50, 200, 799, 3197, 13000",16%
same,inhibition at […],"[1]; read-out: inhibition of TNFα secretion, Triamcinolone 38 nM, Imipramine nM: 0, 99, 394, 1578, 6311, 25000",16.1%
same,inhibition at […],"[1]; read-out: inhibition of TNFα secretion, Triamcinolone 38 nM, Nortriptyline nM: 0, 52, 208, 834, 3336, 13000",7.21%
same,inhibition at 2.434 µM,"[1]; read-out: inhibition of TNFα secretion, Triamcinolone 2434 nM, Desipramine nM: 0, 50, 200, 799, 3197, 13000",47.1%
same,inhibition at 2.434 µM,"[1]; read-out: inhibition of TNFα secretion, Triamcinolone 2434 nM, Imipramine nM: 0, 99, 394, 1578, 6311, 25000",47.2%
same,inhibition at 2.434 µM,"[1]; read-out: inhibition of TNFα secretion, Triamcinolone 2434 nM, Nortriptyline nM: 0, 52, 208, 834, 3336, 13000",33.7%
same,inhibition at 2.434 µM,"[1]; read-out: inhibition of TNFα secretion, Triamcinolone 2434 nM, Protriptyline nM: 0, 52, 208, 834, 3336, 13000",48.5%
same,inhibition at […],"[1]; read-out: percent inhibition of TNFα secretion, Triamcinolone 38 nM, Amitriptyline nM: 0, 50, 199, 796, 3186, 13000",10.8%
same,inhibition at […],"[1]; read-out: percent inhibition of TNFα secretion, Triamcinolone 38 nM, Amoxapine nM: 0, 12, 50, 199, 797, 3187",3.52%
same,inhibition at […],"[1]; read-out: percent inhibition of TNFα secretion, Triamcinolone 38 nM, Clomipramine nM: 0, 45, 178, 712, 2848, 11000",12.5%
same,inhibition at 2.434 µM,"[1]; read-out: percent inhibition of TNFα secretion, Triamcinolone 2434 nM, Amitriptyline nM: 0, 50, 199, 796, 3186, 13000",43.8%
same,inhibition at 2.434 µM,"[1]; read-out: percent inhibition of TNFα secretion, Triamcinolone 2434 nM, Amoxapine nM: 0, 12, 50, 199, 797, 3187",36.1%
same,inhibition at 2.434 µM,"[1]; read-out: percent inhibition of TNFα secretion, Triamcinolone 2434 nM, Clomipramine nM: 0, 45, 178, 712, 2848, 11000",46.9%
"Clc1ccc2c(c1)N=C(N1CCNCC1)c1ccccc1N2 [Norclozapine, norclozapine]",percent inhibition of TNFα secretion,[2],−17%
